Results reported in patent publication US20260027068A1, “METHODS OF ADM[…]-KETAMINE” (Perception Neuroscience, Inc., priority 2022, published 2026).

Assays:
[1] = Systolic blood pressure (vital signs)
Description: The Investigational Medicinal Product (IMP) R(−)-ketamine hydrochloride in sterile water for intravenous injection was investigated as an […] treatment of TRD. The International Union of Pure and Applied Chemistry (IUPAC) name is of the IMP is (2R)-2-(2-chlorophenyl)-2-(methylamino)cyclohexan-1-one. Subjects received the solution at either 30 mg or 60 mg dose, or a placebo. The IMP or placebo was administered on Day 1 as a single IV infusion via an electronic infusion pump over 40 minutes. The duration of study participation for each subject was up to 29 days including a screening period, a 3-day in-clinic visit, and 2 follow-up visits. 101 subjects were enrolled in approximately 20 study centers in the EU and the US.
Tympanic or temporal temperature, heart rate, blood pressure (SBP/DBP), respiratory rate, and SpO2 were assessed. Blood pressure and pulse measurements will be assessed with a completely automated device while the subject is supine or semi-supine. Manual techniques will be used only if an automated device is not available. Blood pressure and pulse measurements should be preceded by at least 5 minutes of rest for the subject in a quiet setting without distractions (e.g., television, cell phones). An abnormal blood pressure value at screening may be repeated once after 5 minutes of relaxation to determine the subject's eligibility. Blood pressure was recorded using the same arm and position (supine or semi-supine) throughout the study, where possible. Vital signs (to be taken before blood collection for laboratory tests) consisted of 1 pulse and 3 blood pressure measurements (3 consecutive blood pressure readings will be recorded at intervals of at least 1 minute). The average of the 3 blood pressure readings was recorded in the CRF. A pulse oximeter was used to measure peripheral capillary oxygen saturation (SpO2) continuously from pre-dose until 4-hours post-dose. A pulse oximeter was clipped onto the finger or foot of the subject, and light will be sent through the finger or foot and measured on the other side.
In these tables, baseline value is defined as the last non-missing value prior to study drug administration.

[2] = tested on: phencyclidine site of the N-methyl-D-aspartate (NMDA) receptor; conditions: compared with racemic ketamine or S(+)-ketamine; cited from earlier work
[3] = tested on: rats; assay: Anhedonic or negative affective side effects

Structure (SMILES): CN[C@@]1(c2ccccc2Cl)CCCCC1=O.Cl [R(−)-ketamine, (2R)-2-(2-chlorophenyl)-2-(methylamino)cyclohexan-1-one]
- Subjects with change from baseline systolic blood pressure >40 mmHg, number ([1]; 30 mg): 0 n
- Subjects with change from baseline systolic blood pressure >40 mmHg, percent ([1]; 30 mg): 0.0%
- Subjects with post-baseline systolic blood pressure >180 mmHg, number ([1]; 30 mg): 0 n
- Subjects with post-baseline systolic blood pressure >180 mmHg, percent ([1]; 30 mg): 0.0%
- Systolic blood pressure: Mean ([1]; 30 mg, Day 1, 15 minutes): 116.8 mmHg
- Systolic blood pressure: Median ([1]; 30 mg, Day 1, 15 minutes): 119.0 mmHg
- Systolic blood pressure: Mean ([1]; 30 mg, Day 1, 40 minutes): 120.1 mmHg
- Systolic blood pressure: Median ([1]; 30 mg, Day 1, 40 minutes): 122.0 mmHg
- Systolic blood pressure: Mean ([1]; 30 mg, Day 1, 60 minutes): 117.7 mmHg
- Systolic blood pressure: Median ([1]; 30 mg, Day 1, 60 minutes): 119.5 mmHg
- Systolic blood pressure: Mean ([1]; 30 mg, Day 1, 2 hours): 118.7 mmHg
- Systolic blood pressure: Median ([1]; 30 mg, Day 1, 2 hours): 122.0 mmHg
- Systolic blood pressure: Mean ([1]; 30 mg, Day 1, 4 hours): 119.0 mmHg
- Systolic blood pressure: Median ([1]; 30 mg, Day 1, 4 hours): 120.0 mmHg
- Systolic blood pressure: Mean ([1]; 30 mg, Day 1, 6 hours): 118.0 mmHg
- Systolic blood pressure: Median ([1]; 30 mg, Day 1, 6 hours): 120.0 mmHg
- Systolic blood pressure: Mean ([1]; 30 mg, Day 2 - Discharge): 118.0 mmHg
- Systolic blood pressure: Median ([1]; 30 mg, Day 2 - Discharge): 120.0 mmHg
- Systolic blood pressure: Mean ([1]; 30 mg, Day 8): 119.2 mmHg
- Systolic blood pressure: Median ([1]; 30 mg, Day 8): 121.0 mmHg
- Systolic blood pressure: Mean ([1]; 30 mg, Day 15): 123.4 mmHg
- Systolic blood pressure: Median ([1]; 30 mg, Day 15): 122.0 mmHg
- Systolic blood pressure: Change from Baseline, Mean ([1]; 30 mg, to Day 1, 15 minutes): 1.2 mmHg
- Systolic blood pressure: Change from Baseline, Median ([1]; 30 mg, to Day 1, 15 minutes): −1.0 mmHg
- Systolic blood pressure: Change from Baseline, Mean ([1]; 30 mg, to Day 1, 40 minutes): 2.0 mmHg
- Systolic blood pressure: Change from Baseline, Median ([1]; 30 mg, to Day 1, 40 minutes): 0.0 mmHg
- Systolic blood pressure: Change from Baseline, Mean ([1]; 30 mg, to Day 1, 60 minutes): 2.4 mmHg
- Systolic blood pressure: Change from Baseline, Median ([1]; 30 mg, to Day 1, 60 minutes): 2.5 mmHg
- Systolic blood pressure: Change from Baseline, Mean ([1]; 30 mg, to Day 1, 2 hours): 0.6 mmHg
- Systolic blood pressure: Change from Baseline, Median ([1]; 30 mg, to Day 1, 2 hours): 0.0 mmHg
- Systolic blood pressure: Change from Baseline, Mean ([1]; 30 mg, to Day 1, 4 hours): 0.9 mmHg
- Systolic blood pressure: Change from Baseline, Median ([1]; 30 mg, to Day 1, 4 hours): −1.0 mmHg
- Systolic blood pressure: Change from Baseline, Mean ([1]; 30 mg, to Day 1, 6 hours): −0.1 mmHg
- Systolic blood pressure: Change from Baseline, Median ([1]; 30 mg, to Day 1, 6 hours): −2.0 mmHg
- Systolic blood pressure: Change from Baseline, Mean ([1]; 30 mg, to Day 2 - Discharge): −0.1 mmHg
- Systolic blood pressure: Change from Baseline, Median ([1]; 30 mg, to Day 2 - Discharge): −1.0 mmHg
- Systolic blood pressure: Change from Baseline, Mean ([1]; 30 mg, to Day 8): 1.2 mmHg
- Systolic blood pressure: Change from Baseline, Median ([1]; 30 mg, to Day 8): 1.0 mmHg
- Systolic blood pressure: Change from Baseline, Mean ([1]; 30 mg, to Day 15): 5.2 mmHg
- Systolic blood pressure: Change from Baseline, Median ([1]; 30 mg, to Day 15): 3.0 mmHg
- Subjects with change from baseline systolic blood pressure >40 mmHg, number ([1]; 60 mg): 1 n
- Subjects with change from baseline systolic blood pressure >40 mmHg, percent ([1]; 60 mg): 2.9%
- Subjects with post-baseline systolic blood pressure >180 mmHg, number ([1]; 60 mg): 0 n
- Subjects with post-baseline systolic blood pressure >180 mmHg, percent ([1]; 60 mg): 0.0%
- Systolic blood pressure: Mean ([1]; 60 mg, Day 1, 15 minutes): 123.6 mmHg
- Systolic blood pressure: Median ([1]; 60 mg, Day 1, 15 minutes): 124.5 mmHg
- Systolic blood pressure: Mean ([1]; 60 mg, Day 1, 40 minutes): 123.0 mmHg
- Systolic blood pressure: Median ([1]; 60 mg, Day 1, 40 minutes): 122.0 mmHg
- Systolic blood pressure: Mean ([1]; 60 mg, Day 1, 60 minutes): 123.9 mmHg
- Systolic blood pressure: Median ([1]; 60 mg, Day 1, 60 minutes): 124.0 mmHg
- Systolic blood pressure: Mean ([1]; 60 mg, Day 1, 2 hours): 119.0 mmHg
- Systolic blood pressure: Median ([1]; 60 mg, Day 1, 2 hours): 120.0 mmHg
- Systolic blood pressure: Mean ([1]; 60 mg, Day 1, 4 hours): 119.1 mmHg
- Systolic blood pressure: Median ([1]; 60 mg, Day 1, 4 hours): 121.0 mmHg
- Systolic blood pressure: Mean ([1]; 60 mg, Day 1, 6 hours): 119.7 mmHg
- Systolic blood pressure: Median ([1]; 60 mg, Day 1, 6 hours): 119.5 mmHg
- Systolic blood pressure: Mean ([1]; 60 mg, Day 2 - Discharge): 120.8 mmHg
- Systolic blood pressure: Median ([1]; 60 mg, Day 2 - Discharge): 122.0 mmHg
- Systolic blood pressure: Mean ([1]; 60 mg, Day 8): 123.2 mmHg
- Systolic blood pressure: Median ([1]; 60 mg, Day 8): 122.0 mmHg
- Systolic blood pressure: Mean ([1]; 60 mg, Day 15): 120.3 mmHg
- Systolic blood pressure: Median ([1]; 60 mg, Day 15): 121.0 mmHg
- Systolic blood pressure: Change from Baseline, Mean ([1]; 60 mg, to Day 1, 15 minutes): 4.4 mmHg
- Systolic blood pressure: Change from Baseline, Median ([1]; 60 mg, to Day 1, 15 minutes): 1.5 mmHg
- Systolic blood pressure: Change from Baseline, Mean ([1]; 60 mg, to Day 1, 40 minutes): 4.9 mmHg
- Systolic blood pressure: Change from Baseline, Median ([1]; 60 mg, to Day 1, 40 minutes): 3.0 mmHg
- Systolic blood pressure: Change from Baseline, Mean ([1]; 60 mg, to Day 1, 60 minutes): 5.3 mmHg
- Systolic blood pressure: Change from Baseline, Median ([1]; 60 mg, to Day 1, 60 minutes): 5.0 mmHg
- Systolic blood pressure: Change from Baseline, Mean ([1]; 60 mg, to Day 1, 2 hours): 0.9 mmHg
- Systolic blood pressure: Change from Baseline, Median ([1]; 60 mg, to Day 1, 2 hours): 1.0 mmHg
- Systolic blood pressure: Change from Baseline, Mean ([1]; 60 mg, to Day 1, 4 hours): 1.0 mmHg
- Systolic blood pressure: Change from Baseline, Median ([1]; 60 mg, to Day 1, 4 hours): 0.0 mmHg
- Systolic blood pressure: Change from Baseline, Mean ([1]; 60 mg, to Day 1, 6 hours): 1.4 mmHg
- Systolic blood pressure: Change from Baseline, Median ([1]; 60 mg, to Day 1, 6 hours): 2.0 mmHg
- Systolic blood pressure: Change from Baseline, Mean ([1]; 60 mg, to Day 2 - Discharge): 2.7 mmHg
- Systolic blood pressure: Change from Baseline, Median ([1]; 60 mg, to Day 2 - Discharge): 1.0 mmHg
- Systolic blood pressure: Change from Baseline, Mean ([1]; 60 mg, to Day 8): 5.0 mmHg
- Systolic blood pressure: Change from Baseline, Median ([1]; 60 mg, to Day 8): 2.0 mmHg
- Systolic blood pressure: Change from Baseline, Mean ([1]; 60 mg, to Day 15): 2.1 mmHg
- Systolic blood pressure: Change from Baseline, Median ([1]; 60 mg, to Day 15): 0.0 mmHg
- Lower affinity to the NMDA receptor [2]: 4 fold
- Anhedonic or negative affective side effects [3]: no anhedonic or negative affective side effects
